Holding throughout (type): cell-based
The test system of test [1] is Streptococcus pneumoniae (MTCC 2672). Nature of the test: Disc diffusion method (zone of inhibition). How it is done: (§1) […] LABS PVT. LTD. at its pre-clinical facility based at Chennai by Study No.: AMOX-538-09. The study report was generated on 1Mar. 2010. The study was conducted as per the approved study protocol.
(§2) The test substances used were three formulations, Formulation I, Formulation II and Formulation III prepared in accordance with Example 1, Example 2 and Example 3 respectively. […] The preparations and the method of the study were as per the approved protocol.
(§3) The sensitivity of the test substances and the reference standards were interpreted as per the CLSI zone diameter interpretive standards shown in Table 3.

Test [2] has as its system Streptococcus pyogenes (MTCC 442). Nature of the test: Disc diffusion method (zone of inhibition). How it is done: as §1, §2, §3
For test [3], the system named is Streptococcus pneumoniae (MTCC 2672). Nature of the test: Broth macrodilution method (MIC). The following applies: MTCC2672, individual drug alone, read-out: MIC (μg/ml) against Streptococcus pneumoniae. How it is done:
as §1, §2

Test [4] concerns Streptococcus pyogenes (MTCC 442). Nature of the test: Broth macrodilution method (MIC). The following applies: MTCC442, individual drug alone, read-out: MIC (μg/ml) against Streptococcus pyogenes. Here is the method:
as §1, §2

≈ marks a conversion by molar mass, not a printed value.

`CC1(C)S[C@@H]2[C@H](NC(=O)[C@H](N)c3ccc(O)cc3)C(=O)N2[C@H]1C(=O)O` [Amoxycillin]: the “Zone Diameter Range (mm) S. pneumoniae” value in test [1] (8 μg/disc) is 33-36 mm; in test [1] (16 μg/disc), 34-36 mm; in test [1] (32 μg/disc) it was 37-38 mm. Moreover, the “Zone Diameter Range (mm) S. pyogenes” value is recorded as 32-33 mm in test [2] (8 μg/disc), 34-36 mm in test [2] (16 μg/disc) and 37-39 mm in test [2] (32 μg/disc). Besides, the MIC amounted to 0.063 µg/mL (≈ 0.172 µM) in test [3] and 0.031 µg/mL (≈ 0.0848 µM) in test [4].
